Experimental findings from patent US10766857B2, “Compound having BLT inhibitory activity and composition, for preventing or treating inflammatory diseases, comprising same as active ingredient” (DONGGUK UNIVERSITY INDUSTRY-ACADEMIC COOPERATION FOUNDATION, priority 2015, dated 2020) are described below.

This assay deals with T1, BLT2 (Homo sapiens, UniProt Q9NPC1).
T1 construct: HA; expressed in transfected cells
T1 sequence (Q9NPC1 with tags, fused parts or gaps): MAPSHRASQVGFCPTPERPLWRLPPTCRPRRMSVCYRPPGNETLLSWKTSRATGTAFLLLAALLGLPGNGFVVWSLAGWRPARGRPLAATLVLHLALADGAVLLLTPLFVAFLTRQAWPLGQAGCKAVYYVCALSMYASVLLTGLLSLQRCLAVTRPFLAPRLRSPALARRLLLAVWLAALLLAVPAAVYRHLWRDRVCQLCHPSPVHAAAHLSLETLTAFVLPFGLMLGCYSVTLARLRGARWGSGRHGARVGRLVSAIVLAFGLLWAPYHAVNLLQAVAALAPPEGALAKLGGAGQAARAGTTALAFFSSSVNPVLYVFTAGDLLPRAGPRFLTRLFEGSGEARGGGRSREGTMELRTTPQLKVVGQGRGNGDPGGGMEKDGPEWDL
Briefly: [3H]LTB4 and BLT2 binding inhibition, CHO-BLT2 cell membrane proteins. To be noted: [3H]LTB4 5 nM.

Description: The inhibition of LTB4 and BLT2 binding (ligand binding affinity) was analyzed using radioactive tritium (^3H)-labeled LTB4 ([^3H]LTB4, ARC; specific activity 160.0 Ci/mmol). After 2×10^6 of CHO-BLT2 cells were plated into a 100-mm culture dish and cultured for 48 hours, an experimental method was carried out as follows: Collected cells were treated using a homogenizer a total of five times for 1 minute each to separate proteins of the cell membrane. Afterward, the cells were subjected to centrifugation at 4° C. and 45,000 rpm for 40 minutes to only collect the proteins of the cell membrane, and thereby, a protein concentration of 40 μg/45 μL was quantified. When a BLT2-containing cell membrane proteins which were quantified in the same manner was treated with the same amount of [^3H]LTB4 (5 nM), and then a different concentration (10^−9, 10^−8, 10^−7, 10^−6 or 10^−5 M) of a compound, a degree of inhibiting the tritium-labeled LTB4 and BLT2 binding was measured using a Hidex 300sL liquid scintillation counter.

Consider `CCCCC(=O)N(CC#Cc1ccc(C(=O)N2CCN(C(C)C)CC2)cc1)c1ccccc1` [LMT-696, N-(3-(4-(4-isopropylpiperazine-1-carbonyl)phenyl)prop-2-ynyl)-N-phenylpentaneamide], for which the half-inhibitory concentration (IC50) (as a rule, the concentration needed to halve the response being measured) was found to be 5.6 nM.
